Data taken from paper PMC7838189, “Natural podophyllotoxin analog 4DPG attenuates EMT and colorectal cancer progression via activation of checkpoint kinase 2” (Cell Death Discovery, 2021).
Several values for one entry are separate records, joined by “and”; a condition that tells them apart may be missing. Identical values can stand only once.

What was measured:
[1] = test system: HT-29/5-FU-R cells; experiment: Western blotting of Chk2 after 4DPG; assay type: cell-based; conditions: 48 h, vs vehicle
Description: (§1) 4DPG, a podophyllotoxin class of natural product anticancer compound (Supplementary Fig. S2A) has been recently described by our research group for its potent antitumor and anti-metastatic properties against aggressive cancers[31],[32]. Further, 4DPG augments phosphorylation and activation of Chk2 (Thr68) leading to suppression of EMT and invasiveness of p53-defective cancer cells. To investigate the effect of 4DPG on phosphorylation and expression levels of Chk2 in HCT-116/5-FU-R, SW-620/5-FU-R, and HT-29/5-FU-R cells, we treated these cells for 48 h with increasing concentrations of the compound, and whole-cell lysates were subjected to western blotting analysis. […] To determine the effect of 4DPG on the invasion abilities of these 5-FU-R cells, we performed in situ fluorescent gelatin degradation assay following our pre-standardized protocol[31],[37]. In physiological conditions, this assay mimics the extracellular matrix degradation by aggressive tumor cells undergoing invasion–metastasis process.
We adhered to the previously published protocol for western blotting. To sum up, cells were exposed to the respective treatments (mentioned in figure legends). Post-treatment, cells were lysed with cell lysis buffer, and cell lysates were collected after centrifugation. Bradford assay was performed to quantify the protein concentration. […]

[2] = test system: HCT-116/5-FU-R cells; experiment: Immunocytochemistry of Vimentin; assay type: cell-based; conditions: 300 nM, 48 h
Description: as §1
Fig. 2 4DPG activates Chk2 and attenuates EMT in 5-FU-R CRC cells. […] G Quantification of the area of degradation through Image J software. n = 3, error bars, mean ± SD; ***P < 0.001. […]

[3] = Pharmacokinetic study, single i.v. dose; assay type: in vivo; conditions: 5 mg/kg i.v. single dose, Balb/c mice
Method: Subsequently, to evaluate the exposure of 4DPG in healthy animals, we performed PK analysis in Balb/c mice by administering a single dose (5 mg/kg) of the compound intravenously.
The PK studies were performed following our standardized procedure with minor modifications. To determine the PK profile of 4DPG, healthy male Balb/c mice (body weight 25–30 g each) were employed in the study. Six animals were enrolled for each sampling time point and a total of 11 time points (0.083, 0.25, 0.5, 1, 2, 4, 6, 8, 12, 16, and 24 h) were involved in the study. Control group of mice were administered with saline and test groups of animals received a single dose of 4DPG (5 mg/kg, body weight) intravenously. After the successful injections of the molecule, 100 µL of plasma was collected from each animal enrolled at the above sampling time points and the plasma proteins were precipitated with 400 µL of acetonitrile. Following extraction into the solvent and subsequent filtration, the compound was analyzed using a 6410 triple-quadrupole LC–MS/MS system (Agilent Technologies, USA). Individual samples collected at each time point were quantified through single ion monitoring (SIM) by comparing with the standard calibration curve prepared using Agilent Mass Hunter software (version B.04.00) (detailed description is provided in Supplementary information file). Essential PK parameters such as half-life (t1/2), C initial (C0), area under the curve (AUC0–∞), volume of distribution (Vd), clearance (Cl), and mean residence time (MRT) were calculated utilizing noncompartmental pharmacokinetic data analysis.

[4] = test system: tumor tissues of orthotopic rat colorectal carcinoma; experiment: Western blotting of tumor tissues; assay type: in vivo, Wistar rats; conditions: 4DPG-treated group vs saline
Method: We adhered to the previously published protocol for western blotting. To sum up, cells were exposed to the respective treatments (mentioned in figure legends). Post-treatment, cells were lysed with cell lysis buffer, and cell lysates were collected after centrifugation. Bradford assay was performed to quantify the protein concentration. Equal amount of protein was taken from each sample to carry out the western blot analysis. SDS-PAGE was employed to separate the proteins that were later transferred onto PVDF membranes (Millipore, Billerica, MA). Next, the membranes were blocked with 5% skim milk and subsequently incubated with the specific primary antibodies (1:1000 dilution), either for 3 h at room temperature or overnight at 4 °C. Later, the blots were washed thoroughly with TBST and probed with the respective secondary antibodies (1:2000 dilution) coupled with horseradish peroxidase for 1 h. Following thorough washing, the membranes were visualized using enhanced chemiluminescence reagent (Millipore) and captured onto Biomax light film (The Eastman Kodak Co., Rochester, NY).

In the case of `COc1cc([C@@H]2c3cc4c(cc3C[C@H]3COC(=O)[C@@H]32)OCO4)cc(OC)c1O[C@@H]1O[C@H](CO)[C@@H](O)[C@H](O)[C@H]1O` [4DPG, 4′-demethyl-deoxypodophyllotoxin glucoside], the “increase in p-Chk2 (Thr68) level” value ([1]; 300 nM (sub-toxic)) is reported as 7.9 fold, the “expression of Chk2 (total)” value [1] is reported as “did not alter significantly” and the “Vimentin expression level (immunocytochemistry)” value [2] is reported as “considerable decrease”. For the same compound, the “Area under curve (AUC0-t)” value [3] was 10068.884 ng·h/mL, the “Area under curve (AUC0-∞)” value [3] was 10104.05 ng·h/mL and 10104.053 ng·h/mL and the “Clearance (Cl)” value [3] was 8.25 mL/min/kg. The “Half-life (t1/2)” value [3] was 39.2 min, the “Mean residence time (MRT)” value [3] was 18.4 min and the “Volume of distribution (Vd)” value [3] was 0.466 L/kg. The “C initial (C0)” value ([3]; plasma) was 10165.18 ng/mL, the “activation of p53 in tumor tissues” value [4] was 5.82 fold and the “activation of p-Chk2 (Thr68) in tumor tissues” value [4] was 3.54 fold. The “downmodulation of Vimentin in tumor tissues” value [4] was 8.3 fold and the “downmodulation of p-Vimentin (ser38) in tumor tissues” value [4] was 18.2 fold.
